Organism: Rattus norvegicus
Test: Open TG-GATES - Regimen: Single
Assay type: toxicity, organism-based, Sprague-Dawley
Design: regimen Single, gender Male, age 6 weeks
Conditions: in vivo, po, 150 mg/kg, route gavage, dose level High; for APTT / Bas / Eos / Fbg / Hb / Ht / Lym / MCH / MCHC / MCV / Mono / Neu / PT / Plat / RBC / Ret / WBC: tissue Blood; for KIDNEY_L / KIDNEY_R / KIDNEY_TOTAL: tissue Kidney; for LIVER: tissue Liver; for A/G / ALP / ALT / AST / BUN / CRE / Ca / Cl / DBIL / GLC / IP / K / LDH / Na / PL / RALB / TBIL / TC / TG / TP / gamma-GTP: tissue Plasma

CC1=C(CC(=O)O)c2cc(F)ccc2/C1=C\c1ccc([S+](C)[O-])cc1 (configuration not stated)
TERMINAL_BW (3 h): 202.5 g | APTT (3 h): 18.7 s | Bas (3 h): 0% | Eos (3 h): 0.8% | Fbg (3 h): 270.6 mg/dL | Hb (3 h): 12.9 g/dL | Ht (3 h): 38.9% | Lym (3 h): 76.4% | MCH (3 h): 21 pg | MCHC (3 h): 33.2% | MCV (3 h): 63.4 fL | Mono (3 h): 3% | Neu (3 h): 18.8% | PT (3 h): 14.3 s | Plat (3 h): 126.3 x10_4/uL | RBC (3 h): 615.4 x10_4/ul | Ret (3 h): 7.8% | WBC (3 h): 82 x10_2/uL | KIDNEY_L (3 h): 0.9 g | KIDNEY_R (3 h): 0.9 g | KIDNEY_TOTAL (3 h): 1.8 g | LIVER (3 h): 8.9 g | A/G (3 h): 1 | ALP (3 h): 1334 IU/L | ALT (3 h): 39.2 IU/L | AST (3 h): 71.2 IU/L | BUN (3 h): 10.4 mg/dL | CRE (3 h): 0.2 mg/dL | Ca (3 h): 10.7 mg/dL | Cl (3 h): 103.8 meq/L | DBIL (3 h): 0.006 mg/dL | GLC (3 h): 161.2 mg/dL | IP (3 h): 8.1 mg/dL | K (3 h): 4 meq/L | LDH (3 h): 67.8 IU/L | Na (3 h): 139.8 meq/L | PL (3 h): 144.4 mg/dL | RALB (3 h): 2.5 g/dL | TBIL (3 h): 0.044 mg/dL | TC (3 h): 75.6 mg/dL | TG (3 h): 71.4 mg/dL | TP (3 h): 5.2 g/dL | gamma-GTP (3 h): 1 IU/L | TERMINAL_BW (6 h): 201.1 g | APTT (6 h): 17.9 s | Bas (6 h): 0% | Eos (6 h): 0.4% | Fbg (6 h): 280 mg/dL | Hb (6 h): 13.3 g/dL | Ht (6 h): 40.9% | Lym (6 h): 65.8% | MCH (6 h): 21 pg | MCHC (6 h): 32.7% | MCV (6 h): 64.4 fL | Mono (6 h): 3.6% | Neu (6 h): 29.2% | PT (6 h): 14 s | Plat (6 h): 133.5 x10_4/uL | RBC (6 h): 635 x10_4/ul | Ret (6 h): 8.1% | WBC (6 h): 68.2 x10_2/uL | KIDNEY_L (6 h): 0.9 g | KIDNEY_R (6 h): 1 g | KIDNEY_TOTAL (6 h): 1.9 g | LIVER (6 h): 8.2 g | A/G (6 h): 1 | ALP (6 h): 1506 IU/L | ALT (6 h): 40 IU/L | AST (6 h): 71.4 IU/L | BUN (6 h): 10.4 mg/dL | CRE (6 h): 0.2 mg/dL | Ca (6 h): 10.7 mg/dL | Cl (6 h): 104.8 meq/L | DBIL (6 h): 0.01 mg/dL | GLC (6 h): 168.4 mg/dL | IP (6 h): 9.3 mg/dL | K (6 h): 4.1 meq/L | LDH (6 h): 77.6 IU/L | Na (6 h): 141.2 meq/L | PL (6 h): 135.4 mg/dL | RALB (6 h): 2.6 g/dL | TBIL (6 h): 0.04 mg/dL | TC (6 h): 70.6 mg/dL | TG (6 h): 33 mg/dL | TP (6 h): 5.3 g/dL | gamma-GTP (6 h): 1.4 IU/L | TERMINAL_BW (9 h): 200.1 g | APTT (9 h): 16.2 s | Bas (9 h): 0% | Eos (9 h): 1% | Fbg (9 h): 294.8 mg/dL | Hb (9 h): 13.3 g/dL | Ht (9 h): 40.5% | Lym (9 h): 67.4% | MCH (9 h): 20.8 pg | MCHC (9 h): 32.8% | MCV (9 h): 63.5 fL | Mono (9 h): 3.2% | Neu (9 h): 28% | PT (9 h): 13.8 s | Plat (9 h): 122 x10_4/uL | RBC (9 h): 638 x10_4/ul | Ret (9 h): 7.8% | WBC (9 h): 50.2 x10_2/uL | KIDNEY_L (9 h): 0.9 g | KIDNEY_R (9 h): 0.9 g | KIDNEY_TOTAL (9 h): 1.8 g | LIVER (9 h): 7.6 g | A/G (9 h): 1 | ALP (9 h): 1365 IU/L | ALT (9 h): 37.4 IU/L | AST (9 h): 68.8 IU/L | BUN (9 h): 9.8 mg/dL | CRE (9 h): 0.2 mg/dL | Ca (9 h): 10.4 mg/dL | Cl (9 h): 107 meq/L | DBIL (9 h): 0.014 mg/dL | GLC (9 h): 169.4 mg/dL | IP (9 h): 10.1 mg/dL | K (9 h): 4.2 meq/L | LDH (9 h): 72 IU/L | Na (9 h): 141.4 meq/L | PL (9 h): 127.8 mg/dL | RALB (9 h): 2.6 g/dL | TBIL (9 h): 0.046 mg/dL | TC (9 h): 68.4 mg/dL | TG (9 h): 40 mg/dL | TP (9 h): 5.2 g/dL | gamma-GTP (9 h): 1 IU/L | TERMINAL_BW (24 h): 203.3 g | APTT (24 h): 15.4 s | Bas (24 h): 0% | Eos (24 h): 0.4% | Fbg (24 h): 378 mg/dL | Hb (24 h): 10.3 g/dL | Ht (24 h): 32% | Lym (24 h): 54.4% | MCH (24 h): 20.7 pg | MCHC (24 h): 32.3% | MCV (24 h): 64 fL | Mono (24 h): 2.4% | Neu (24 h): 42% | PT (24 h): 13 s | Plat (24 h): 78.4 x10_4/uL | RBC (24 h): 500.2 x10_4/ul | Ret (24 h): 8.5% | WBC (24 h): 96.3 x10_2/uL | KIDNEY_L (24 h): 0.9 g | KIDNEY_R (24 h): 0.9 g | KIDNEY_TOTAL (24 h): 1.8 g | LIVER (24 h): 9.1 g | A/G (24 h): 0.9 | ALP (24 h): 747.4 IU/L | ALT (24 h): 30.2 IU/L | AST (24 h): 42.6 IU/L | BUN (24 h): 24 mg/dL | CRE (24 h): 0.2 mg/dL | Ca (24 h): 9.3 mg/dL | Cl (24 h): 105.2 meq/L | DBIL (24 h): 0.008 mg/dL | GLC (24 h): 162.4 mg/dL | IP (24 h): 9.8 mg/dL | K (24 h): 5.1 meq/L | LDH (24 h): 58.8 IU/L | Na (24 h): 137.2 meq/L | PL (24 h): 117 mg/dL | RALB (24 h): 1.5 g/dL | TBIL (24 h): 0.024 mg/dL | TC (24 h): 67.4 mg/dL | TG (24 h): 126.6 mg/dL | TP (24 h): 3.2 g/dL | gamma-GTP (24 h): 0.8 IU/L

From ChEMBL document CHEMBL3885861, “Open TG-GATES”
